These results are taken from the METLIN SMRT retention time set (Domingo-Almenara et al. 2019).

The data set is described as follows: gradient 5% acetonitrile 3 min, to 50% in 2 min, to 85% in 15 min, held 3 min, 100 µL/min. As to conditions: column: Zorbax Extend-C18 2.1 x 50 mm; eluents: water / acetonitrile, 0.1% formic acid. The method in brief: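 Standards, all pure, were combined into mixtures of ~100 molecules and run at 100 μL/min on a Zorbax Extend-C18 column (2.1 × 50 mm, 1.8 μm) with water and acetonitrile, each containing 0.1% formic acid. A coupled quadrupole time-of-flight mass spectrometer operated in positive and negative ionization mode. Retention time values come from computationally picked adduct peaks, each inspected manually.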
Regarding `CCN(CC)c1nc(-c2ccc([N+](=O)[O-])cc2)nc2ccccc12`, the RP-LC retention time is 771 s.
Molecule `CC(NC(=O)CN1C(=O)C2CCCCN2c2ccc(S(=O)(=O)N(C)C)cc21)c1ccccc1` (centres undefined) displayed an RP-LC retention time of 902 s.
`Cn1cc2c(n1)c(=O)n(Cc1ccc(F)cc1)c(=O)n2CC(=O)Nc1cc(F)ccc1F` came in with an RP-LC retention time of 841 s.
Molecule `CCCCn1cc(S(=O)(=O)Nc2ccc(F)c(C)c2)c2cccnc21` displayed an RP-LC retention time of 995 s.
In the case of `CCCC(=O)Nc1nc2ccc(CCC(=O)Nc3cc(Cl)c(OC)cc3OC)cc2s1`, the RP-LC retention time was determined as 920 s.
For `CCOc1ccc(-c2nc(CN(c3ccccc3)S(=O)(=O)c3cccs3)c(C)o2)cc1`, the RP-LC retention time amounted to 1220 s.
For the molecule `COc1ccccc1-c1noc(C2CCCN2C(=O)c2cccs2)n1` (centres undefined), the RP-LC retention time came to 849 s.
Regarding `CN1C(=O)C(C)(C(=O)NCc2ccc(Br)cc2)Oc2cccnc21` (centres undefined), the RP-LC retention time stood at 837 s.
The molecule `Cc1ccc2nc(CN3CCN(C(=O)NCCc4ccccc4)CC3)oc2c1` yielded an RP-LC retention time of 677 s.
For `Cc1cccc(Nc2c(-c3ccc(C(=O)O)cc3)nc3cnccn23)c1C`, the RP-LC retention time turned out to be 780 s.
Molecule `Cc1nc2nc(-c3ccc(C(C)(C)C)cc3)nn2c(C)c1CC(=O)N1CCOCC1` yielded an RP-LC retention time of 832 s.
Regarding `CCN(CC)S(=O)(=O)c1ccc2c(c1)CC(C(=O)N1CCN(c3ccccc3)CC1)N2C(C)=O` (centres undefined), the RP-LC retention time was found to be 879 s.
In the case of `CSc1ccc(-c2noc(Cn3c(=O)n(-c4cccc(C)c4)c(=O)c4sccc43)n2)cc1`, the RP-LC retention time is 1070 s.
Regarding `CC1CN(CC(=O)N2CCN(Cc3ccc4c(c3)OCO4)CC2)c2ccccc2S1` (centres undefined), the RP-LC retention time amounted to 723 s.
In turn, `O=C(c1ccc(-c2cccs2)nc1)N1CCOCC1` registered an RP-LC retention time of 678 s.
Molecule `Cc1ccc(CSc2nc(CC(=O)N3CCC(C(N)=O)CC3)cs2)cc1` had an RP-LC retention time of 680 s.
`CCCc1cc(N2CCN(C(=O)C3CC3)CC2)nc2nncn12` gave an RP-LC retention time of 586 s.
`CCCn1c(=O)sc2cc(S(=O)(=O)N3CCC(C(=O)Nc4ccc(OC)cc4)CC3)ccc21` returned an RP-LC retention time of 918 s.
Take `CC1CN(C(=O)Cn2cc(SCC(=O)NCC3CCCO3)c3ccccc32)CC(C)O1` (centres undefined): the RP-LC retention time was 723 s.
Consider `Cc1nc2cccnc2n1CCN1CCN(C(=O)Nc2ccc(F)cc2)CC1`, for which the RP-LC retention time amounted to 584 s.
With `O=C(CN1CCN(c2ccccn2)CC1)N1c2ccccc2Sc2ccccc21` the figure was 652 s; with `Cc1nc(N2CCOCC2)c2c(C(=O)NCC3CCN(Cc4ccccc4Cl)CC3)c(C)oc2n1`, 613 s; with `Cn1nccc1-c1cccc(-c2noc(-c3cccnc3)n2)c1`, 876 s.
In turn, `Cc1ccc(-c2noc(Cc3nc(-c4ccc(C)cc4C)cs3)n2)cc1` had an RP-LC retention time of 1190 s.
As for `CC(C)CCNC(=O)C1(C)CN(S(=O)(=O)c2ccccc2)CC(=O)N1c1ccc(Cl)cc1` (centres undefined), the RP-LC retention time worked out at 992 s.
In the case of `CC(C)(C)C(=O)Nc1nc(CC(=O)NCCC2=CCCCC2)cs1`, the RP-LC retention time is 814 s.
For the molecule `CCOc1ccc(-n2c(=O)c3sccc3n(Cc3nc(-c4ccccc4Cl)no3)c2=O)cc1`, the RP-LC retention time was 1020 s.
`COc1ccc(NC(=O)C2CCCN(c3nc4c(s3)c(C)nn4-c3ccccc3)C2)cc1Cl` (centres undefined) came in with an RP-LC retention time of 1190 s.
`Cc1nc(N2CCCC2)cc(N2CCN(C(=O)c3ccccc3Br)CC2)n1`: the RP-LC retention time was found to be 651 s.
`CCc1ccc2nc(NC3=NCN(CCCOC)CN3)nc(C)c2c1` registered an RP-LC retention time of 694 s.
Molecule `O=C(CN1CCN(Cc2ccc(F)cc2Cl)C1=O)NCC1CCCCC1` returned an RP-LC retention time of 927 s.
In turn, `Cc1ncc2c(n1)C[C@@H]1CC[C@H]2N1C(=O)c1ccccn1` came in with an RP-LC retention time of 603 s.
For `O=C(NC1CC1)[C@@H]1C[C@H](Oc2ccccc2)CN1C(=O)c1ccoc1`, the RP-LC retention time came to 709 s.
In turn, `CCn1cc(-c2ccc(Cl)cc2)cc1C(=O)NCC1CCCO1` (centres undefined) yielded an RP-LC retention time of 1010 s.
For `CCc1nc2c(=O)n(CC(=O)N3CCCCC3)nc(C)c2s1`, the RP-LC retention time worked out at 673 s.
`COc1ccc(-c2nc(C)cc(C)c2CNC(=O)CC2CCCC2)cc1` displayed an RP-LC retention time of 639 s.
Molecule `Nc1nc(Nc2ccc(F)cc2)nc2cccc(F)c12` yielded an RP-LC retention time of 627 s.
The value for `CCOC(=O)c1c(C)n(C)c2c1cc(O)c1ccccc12` was 945 s.
Take `CC(C)NC(=O)N1CCCC(c2cccc(C(=O)NCc3ccccc3F)c2)C1` (centres undefined): the RP-LC retention time is 854 s.
The molecule `Cc1ccc(CNC(=O)Cn2ccc3c(SCc4ccc(F)cc4)nccc32)o1` showed an RP-LC retention time of 735 s.
Molecule `O=C(NCc1ccc2c(c1)CCN2C(=O)c1ccccc1)C1CCN(S(=O)(=O)N2CCCC2)CC1` returned an RP-LC retention time of 829 s.
With `CCCN1C(=O)c2ccccc2Sc2cc(-c3noc(C(C)NC(=O)c4ccco4)n3)ccc21` (centres undefined) the figure was 984 s.
Molecule `Cc1nnc(-c2sccc2C)o1` yielded an RP-LC retention time of 742 s.
Molecule `COCc1nnc(NC(=O)C2CC(=O)N(CCc3c[nH]c4ccc(Cl)cc34)C2)s1` (centres undefined) yielded an RP-LC retention time of 724 s.
For `Cc1ccc(F)cc1NC(=O)c1sc(-c2cn(C)c3ncccc23)nc1C`, the RP-LC retention time was 983 s.
For the molecule `COc1ccc2c(=O)c(Oc3ccc(C(=O)NC4CCS(=O)(=O)C4)cc3)coc2c1` (centres undefined), the RP-LC retention time was 687 s.
As to `Cc1ccc(CNC(=O)c2ccc3c(c2)nc2n3CCCCC2)o1`, the RP-LC retention time is 619 s.
With `O=C1Nc2cc(C(=O)N3CCCCC3)ccc2N2CCCCC12` (centres undefined), the RP-LC retention time stood at 762 s.
The value for `O=C(C1CCC1)N1CCc2sc(S(=O)(=O)NCc3ccc(F)cc3)cc2C1` was 877 s; that for `Cc1ccccc1-c1noc(CN2C(=O)COc3cc(Cl)ccc32)n1` was 1150 s.
As to `Cc1ccccc1CNS(=O)(=O)c1cn(C(C)C)c2ncccc12`, the RP-LC retention time is 960 s.
`O=C(NCC(=O)N1CCCc2ccccc21)c1cccc(Br)c1` displayed an RP-LC retention time of 822 s.
On to `COc1cc(OC)c(NC(=O)N2CCC(n3c(C(F)(F)F)nc4cccnc43)CC2)cc1Cl`, for which the RP-LC retention time worked out at 956 s.
The value for `Cc1cc(C)c(-c2csc(NC(=O)c3ccccc3[N+](=O)[O-])n2)c(C)c1` was 1070 s; that for `N#Cc1cccc(CN2CCCC2c2nc(-c3ccccc3)n[nH]2)c1` (centres undefined) was 616 s; that for `O=C(c1cccnc1)N1CCN(c2ccccc2Cl)CC1` was 826 s.
`O=c1ccn(-c2ccc(Cl)cc2)nc1-c1nc(-c2cccc(Br)c2)no1` returned an RP-LC retention time of 1080 s.
With `COc1cc(CNS(=O)(=O)c2cccc(-c3nc(-c4ccccc4)no3)c2)cc(OC)c1OC`, the RP-LC retention time stood at 1040 s.
In turn, `COc1ccc(-c2ccnc3nc(CCc4ccccc4)nn23)c(F)c1` registered an RP-LC retention time of 963 s.
